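The compound was tested at five concentrations on cells cultured in 96-well plates, with a 48-hour exposure period. GI50 = concentration required for 50% inhibition of growth. TGI: total growth inhibition.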
Assays:
Assay in all cases: NCI tumour cell line growth inhibition, 48 h
[1] = system: UACC-62 melanoma
[2] = system: 786-0 renal
[3] = system: PC-3 prostate
[4] = system: CCRF-CEM leukemia
[5] = system: T-47D breast
[6] = system: UACC-257 melanoma
[7] = system: K-562 leukemia
[8] = system: SF-295 CNS
[9] = system: NCI-H460 lung
[10] = system: SF-539 CNS
[11] = system: RPMI-8226 leukemia
[12] = system: LOX IMVI melanoma
[13] = system: SF-268 CNS
[14] = system: SK-MEL-5 melanoma
[15] = system: U251 CNS
[16] = system: NCI-H522 lung
[17] = system: ACHN renal
[18] = system: A549 NSCLC
[19] = system: OVCAR-3 ovarian
[20] = system: HOP-62 NSCLC
[21] = system: UO-31 renal
[22] = system: SK-MEL-2 melanoma
[23] = system: DU-145 prostate
[24] = system: SK-OV-3 ovarian
[25] = system: M14 melanoma
[26] = system: MOLT-4 leukemia
[27] = system: SN12C renal
[28] = system: IGROV1 ovarian
[29] = system: MDA-MB-231 breast
[30] = system: EKVX NSCLC
[31] = system: HOP-92 NSCLC
[32] = system: HS 578T breast
[33] = system: KM12 colon
[34] = system: NCI-H23 lung
[35] = system: HCC-2998 colon
[36] = system: MDA-MB-435
[37] = system: BT-549 breast
[38] = system: HL-60(TB) leukemia
[39] = system: COLO 205 colon
[40] = system: RXF 393 renal
[41] = system: OVCAR-4 ovarian
[42] = system: SNB-75 CNS
[43] = system: SW-620 colon
[44] = system: HCT-15 colon
[45] = system: HCT-116 colon
[46] = system: HT29 colon
[47] = system: SNB-19 CNS
[48] = system: NCI-H226 lung
[49] = system: TK-10 renal
[50] = system: MCF7 breast
[51] = system: OVCAR-8 ovarian
[52] = system: A498 renal
[53] = system: OVCAR-5 ovarian
[54] = system: MALME-3M melanoma
[55] = system: SK-MEL-28 melanoma
[56] = system: CAKI-1 renal
[57] = system: SR leukemia
[58] = system: NCI/ADR-RES ovarian

## COC(=O)C(=Cc1ccccc1[N+](=O)[O-])C(=O)OC
[1]
  GI50: 3.79 µM
  TGI: 15.5 µM
[2]
  GI50: 4.24 µM
  TGI: 14.2 µM
[3]
  GI50: 4.63 µM
  TGI: 21.1 µM
[4]
  GI50: 1.81 µM
  TGI: 5.16 µM
[5]
  GI50: 2.12 µM
  TGI: 11 µM
[6]
  GI50: 4.06 µM
  TGI: 17.3 µM
[7]
  GI50: 2.51 µM
  TGI: 9.48 µM
[8]
  GI50: 4.08 µM
  TGI: 17.3 µM
[9]
  GI50: 3.41 µM
  TGI: 13.7 µM
[10]
  GI50: 2.63 µM
  TGI: 7.5 µM
[11]
  GI50: 1.27 µM
  TGI: 3.63 µM
[12]
  GI50: 2.08 µM
  TGI: 5.88 µM
[13]
  GI50: 3.06 µM
  TGI: 12.7 µM
[14]
  GI50: 2.55 µM
  TGI: 9.2 µM
[15]
  GI50: 3.23 µM
  TGI: 13.9 µM
[16]
  GI50: 1.9 µM
  TGI: 6.65 µM
[17]
  GI50: 4.33 µM
  TGI: 15.6 µM
[18]
  GI50: 3.98 µM
  TGI: 21.7 µM
[19]
  GI50: 2.28 µM
  TGI: 5.67 µM
[20]
  GI50: 13.6 µM
  TGI: 27.1 µM
[21]
  GI50: 2.31 µM
  TGI: 9.8 µM
[22]
  GI50: 3.61 µM
  TGI: 16.4 µM
[23]
  GI50: 2.29 µM
  TGI: 6.61 µM
[24]
  GI50: 10.2 µM
  TGI: 21.8 µM
[25]
  GI50: 3.04 µM
  TGI: 14 µM
[26]
  GI50: 2.31 µM
  TGI: 7.21 µM
[27]
  GI50: 3.63 µM
  TGI: 18.1 µM
[28]
  GI50: 3.41 µM
  TGI: 12 µM
[29]
  GI50: 3.68 µM
  TGI: 13.5 µM
[30]
  GI50: 4.23 µM
  TGI: 17 µM
[31]
  GI50: 2.38 µM
  TGI: 7.4 µM
[32]
  GI50: 2.04 µM
  TGI: 8.09 µM
[33]
  GI50: 2.99 µM
  TGI: 10 µM
[34]
  GI50: 2.62 µM
  TGI: 9.83 µM
[35]
  GI50: 2.68 µM
  TGI: 7.36 µM
[36]
  GI50: 2.26 µM
  TGI: 10.2 µM
[37]
  GI50: 7.14 µM
  TGI: 19.8 µM
[38]
  GI50: 2.78 µM
  TGI: > 100 µM
[39]
  GI50: 3.05 µM
  TGI: 11 µM
[40]
  GI50: 1.87 µM
  TGI: 4.3 µM
[41]
  GI50: 3.94 µM
  TGI: 16.1 µM
[42]
  GI50: 2.75 µM
  TGI: 15.3 µM
[43]
  GI50: 3.9 µM
  TGI: 12.7 µM
[44]
  GI50: 2.08 µM
  TGI: 10.7 µM
[45]
  GI50: 2.69 µM
  TGI: 9.55 µM
[46]
  GI50: 3.54 µM
  TGI: 14.4 µM
[47]
  GI50: 5.41 µM
  TGI: 21.6 µM
[48]
  GI50: 8.34 µM
  TGI: 24.8 µM
[49]
  GI50: 5.93 µM
  TGI: 18.1 µM
[50]
  GI50: 2.35 µM
  TGI: 11.2 µM
[51]
  GI50: 3.53 µM
  TGI: 40.8 µM
[52]
  GI50: 2.75 µM
  TGI: 8.23 µM
[53]
  GI50: 3.13 µM
  TGI: 8.35 µM
[54]
  GI50: 4.44 µM
  TGI: 18.1 µM
[55]
  GI50: 2.16 µM
  TGI: 6.06 µM
[56]
  GI50: 3.61 µM
  TGI: 14.1 µM
[57]
  GI50: 1.04 µM
  TGI: 4.84 µM
[58]
  GI50: 2.31 µM
  TGI: 5.77 µM

## C=CCSSC1N=CNc2nc[nH]c21 (stereo not given)
[1]
  GI50: 1.75 µM
  TGI: > 57.7 µM
[2]
  GI50: 1.75 µM
  TGI: > 36.3 µM
[3]
  GI50: 5.56 µM
  TGI: 28.7 µM
[4]
  GI50: 0.871 µM
  TGI: > 28.1 µM
[5]
  GI50: 1.39 µM
  TGI: 26.5 µM
[6]
  GI50: 5.34 µM
  TGI: 16.8 µM
[7]
  GI50: 0.343 µM
  TGI: > 26 µM
[8]
  GI50: 2.61 µM
  TGI: > 100 µM
[9]
  GI50: 8.16 µM
  TGI: > 100 µM
[10]
  GI50: 2.6 µM
  TGI: 32.4 µM
[11]
  GI50: 1.44 µM
  TGI: 6.26 µM
[12]
  GI50: 0.374 µM
  TGI: 14.6 µM
[13]
  GI50: 5.66 µM
  TGI: > 46.9 µM
[14]
  GI50: 5.31 µM
  TGI: 39.5 µM
[15]
  GI50: 15.9 µM
  TGI: > 54.4 µM
[16]
  GI50: 4.34 µM
  TGI: 48.3 µM
[17]
  GI50: 5.62 µM
  TGI: > 46.3 µM
[18]
  GI50: 30.5 µM
  TGI: > 100 µM
[19]
  GI50: 0.944 µM
  TGI: 14.2 µM
[20]
  GI50: 1.54 µM
  TGI: > 70.4 µM
[21]
  GI50: 2.72 µM
  TGI: 13 µM
[22]
  GI50: 6.11 µM
  TGI: 19.2 µM
[23]
  GI50: 0.837 µM
  TGI: > 47.5 µM
[24]
  GI50: 0.562 µM
  TGI: > 88.6 µM
[25]
  GI50: 0.461 µM
  TGI: 18.6 µM
[26]
  GI50: 2.15 µM
  TGI: > 24.1 µM
[27]
  GI50: 10.4 µM
  TGI: > 67.4 µM
[28]
  GI50: 2.12 µM
  TGI: 11.2 µM
[29]
  GI50: 4.84 µM
  TGI: 36.2 µM
[30]
  GI50: 49.4 µM
  TGI: > 100 µM
[31]
  GI50: 0.376 µM
  TGI: 17 µM
[32]
  GI50: 12.8 µM
  TGI: > 100 µM
[33]
  GI50: 4.42 µM
  TGI: > 43.6 µM
[34]
  GI50: 8.09 µM
  TGI: 42.8 µM
[35]
  GI50: 2.82 µM
  TGI: 23.8 µM
[36]
  GI50: 2.15 µM
  TGI: 39.9 µM
[37]
  GI50: 8.78 µM
  TGI: > 76.4 µM
[38]
  GI50: 2.4 µM
  TGI: > 26.2 µM
[39]
  GI50: 3.52 µM
  TGI: 14.7 µM
[40]
  GI50: 4.73 µM
  TGI: 21.5 µM
[41]
  GI50: 0.446 µM
  TGI: 5.43 µM
[42]
  GI50: 3.18 µM
  TGI: > 90.9 µM
[43]
  GI50: 3.71 µM
  TGI: 14.9 µM
[44]
  GI50: 4.71 µM
  TGI: 24.5 µM
[45]
  GI50: 2.77 µM
  TGI: 15.8 µM
[46]
  GI50: 5.88 µM
  TGI: 36.5 µM
[47]
  GI50: > 71.6 µM
  TGI: > 100 µM
[48]
  GI50: 12.2 µM
  TGI: > 100 µM
[49]
  GI50: 0.708 µM
  TGI: 23.8 µM
[50]
  GI50: 1.02 µM
  TGI: 16.1 µM
[51]
  GI50: 4 µM
  TGI: 23.3 µM
[52]
  GI50: 67.2 µM
  TGI: > 100 µM
[53]
  GI50: 7.53 µM
  TGI: > 50.6 µM
[54]
  GI50: 3.61 µM
  TGI: > 42.2 µM
[55]
  GI50: 27.2 µM
  TGI: > 70.2 µM
[56]
  GI50: 1.97 µM
  TGI: 34.5 µM
[57]
  GI50: 1.28 µM
  TGI: > 100 µM
[58]
  GI50: 4.46 µM
  TGI: > 80.6 µM

## COCn1cnc2c(=O)n(-c3ccc(C)cc3)c(=S)n(-c3ccc(C)cc3)c21
[1]
  TGI: > 100 µM
[2]
  TGI: > 100 µM
[3]
  TGI: > 100 µM
[4]
  TGI: > 100 µM
[5]
  TGI: > 100 µM
[6]
  TGI: > 100 µM
[7]
  TGI: > 100 µM
[8]
  TGI: > 100 µM
[9]
  TGI: > 100 µM
[10]
  TGI: > 100 µM
[11]
  TGI: > 100 µM
[12]
  TGI: > 100 µM
[13]
  TGI: > 100 µM
[14]
  TGI: > 100 µM
[15]
  TGI: > 100 µM
[16]
  TGI: > 100 µM
[17]
  TGI: > 100 µM
[18]
  TGI: > 100 µM
[19]
  TGI: > 100 µM
[20]
  TGI: > 100 µM
[21]
  TGI: > 100 µM
[22]
  TGI: > 100 µM
[23]
  TGI: > 100 µM
[24]
  TGI: > 100 µM
[25]
  TGI: > 100 µM
[26]
  TGI: > 100 µM
[27]
  TGI: > 100 µM
[28]
  TGI: > 100 µM
[29]
  TGI: > 100 µM
[30]
  TGI: > 100 µM
[31]
  TGI: > 100 µM
[32]
  TGI: > 100 µM
[33]
  TGI: > 100 µM
[34]
  TGI: > 100 µM
[35]
  TGI: > 100 µM
[36]
  TGI: > 100 µM
[37]
  TGI: > 100 µM
[38]
  TGI: > 100 µM
[39]
  TGI: > 100 µM
[40]
  TGI: > 100 µM
[41]
  TGI: > 100 µM
[42]
  TGI: > 100 µM
[43]
  TGI: > 100 µM
[44]
  TGI: > 100 µM
[45]
  TGI: > 100 µM
[46]
  TGI: > 100 µM
[47]
  TGI: > 100 µM
[48]
  TGI: > 100 µM
[49]
  TGI: > 100 µM
[50]
  TGI: > 100 µM
[51]
  TGI: > 100 µM
[52]
  TGI: > 100 µM
[53]
  TGI: > 100 µM
[54]
  TGI: > 100 µM
[55]
  TGI: > 100 µM
[56]
  TGI: > 100 µM
[57]
  TGI: > 100 µM
[58]
  TGI: > 100 µM
